Measurements from patent publication US11655235B2, “Pyrrolidine and piperidine compounds” (YUHAN CORPORATION, priority 2019, dated 2023).

Legend:
[1] = biological target: T1, recombinant human PREP (Homo sapiens, UniProt P48147); experiment: PREP inhibition, fluorogenic substrate Z-Gly-Pro-AMC; assay type: biochemical; conditions: Inhibitory Activity (IC50, nM) PREP, recombinant human PREP
T1 construct: purchased R&D System
T1 sequence (P48147 1-710): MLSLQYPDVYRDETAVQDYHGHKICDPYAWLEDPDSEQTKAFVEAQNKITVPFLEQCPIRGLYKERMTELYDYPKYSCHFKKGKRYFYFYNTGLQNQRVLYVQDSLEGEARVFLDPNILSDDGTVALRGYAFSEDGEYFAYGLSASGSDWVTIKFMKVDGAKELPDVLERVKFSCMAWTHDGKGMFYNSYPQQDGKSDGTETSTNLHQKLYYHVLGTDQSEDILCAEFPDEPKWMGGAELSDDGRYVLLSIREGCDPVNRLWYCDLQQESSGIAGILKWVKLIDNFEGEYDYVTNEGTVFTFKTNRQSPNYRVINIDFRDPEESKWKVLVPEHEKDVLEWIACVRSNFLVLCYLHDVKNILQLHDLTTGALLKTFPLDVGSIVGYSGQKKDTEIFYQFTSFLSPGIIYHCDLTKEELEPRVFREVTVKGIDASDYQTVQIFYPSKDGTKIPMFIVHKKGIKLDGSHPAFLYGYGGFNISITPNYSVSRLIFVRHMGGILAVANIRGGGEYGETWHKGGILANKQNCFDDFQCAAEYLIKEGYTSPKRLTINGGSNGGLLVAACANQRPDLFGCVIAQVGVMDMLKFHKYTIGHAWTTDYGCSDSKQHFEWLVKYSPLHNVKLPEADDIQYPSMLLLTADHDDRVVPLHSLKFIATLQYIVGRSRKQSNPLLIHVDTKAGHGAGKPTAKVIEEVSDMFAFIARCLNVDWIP
Summary of the method: (§1)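 Enzyme per reaction: 50 ng DPP9, 20 ng DPP8, 10 ng each DPP7 and PREP. Compounds were serially diluted (8 points, up to 0.5% DMSO) and incubated at 25 °C.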

[2] = biological target: T2, Recombinant human FAP (Homo sapiens, UniProt Q12884); experiment: FAP FRET assay, FGF21-sequence FRET peptide substrate; assay type: biochemical; conditions: FRET peptide with human FGF21 sequence, 6 μM, 37° C.
T2 construct: purchased R&D systems
T2 sequence (Q12884 1-760): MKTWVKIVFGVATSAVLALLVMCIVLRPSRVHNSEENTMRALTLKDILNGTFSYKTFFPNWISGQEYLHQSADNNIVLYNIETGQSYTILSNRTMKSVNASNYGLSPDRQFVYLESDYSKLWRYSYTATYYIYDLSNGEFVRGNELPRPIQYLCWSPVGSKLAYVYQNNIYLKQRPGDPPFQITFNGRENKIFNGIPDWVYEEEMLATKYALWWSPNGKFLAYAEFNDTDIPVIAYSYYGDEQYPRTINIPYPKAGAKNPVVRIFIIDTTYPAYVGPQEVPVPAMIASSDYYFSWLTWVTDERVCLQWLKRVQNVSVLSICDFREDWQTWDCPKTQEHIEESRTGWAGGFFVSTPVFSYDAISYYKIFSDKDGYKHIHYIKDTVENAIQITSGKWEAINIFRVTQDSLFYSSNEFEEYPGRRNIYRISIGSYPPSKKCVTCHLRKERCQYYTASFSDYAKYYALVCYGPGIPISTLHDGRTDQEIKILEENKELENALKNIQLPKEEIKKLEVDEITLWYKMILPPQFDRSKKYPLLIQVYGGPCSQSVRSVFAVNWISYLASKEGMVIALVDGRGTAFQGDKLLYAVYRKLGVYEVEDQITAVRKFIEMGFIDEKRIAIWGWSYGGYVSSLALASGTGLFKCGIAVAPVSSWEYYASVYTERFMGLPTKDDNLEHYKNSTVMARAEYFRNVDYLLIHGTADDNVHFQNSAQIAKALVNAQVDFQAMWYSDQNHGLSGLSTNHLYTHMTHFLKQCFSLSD
Summary of the method: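 Recombinant human FAP, 10 ng per reaction, in 50 mM HEPES pH 7.2 with 150 mM NaCl, 0.1 mg/ml BSA, 1 mM EDTA; HyLite Fluor 488/QXL 520 FRET peptide of human FGF21 sequence at 6 μM final, ≤0.1% DMSO, 37° C. IC50 from 8-point curves by four-parameter logistic fit.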

[3] = biological target: T3, DPP4 (Homo sapiens, UniProt P27487); experiment: DPP4 inhibition, fluorogenic substrate H-Gly-Pro-AMC; assay type: biochemical; parameters: purchased R&D Systems; conditions: recombinant human DPP4
Target sequence in this assay (P27487 whole entry): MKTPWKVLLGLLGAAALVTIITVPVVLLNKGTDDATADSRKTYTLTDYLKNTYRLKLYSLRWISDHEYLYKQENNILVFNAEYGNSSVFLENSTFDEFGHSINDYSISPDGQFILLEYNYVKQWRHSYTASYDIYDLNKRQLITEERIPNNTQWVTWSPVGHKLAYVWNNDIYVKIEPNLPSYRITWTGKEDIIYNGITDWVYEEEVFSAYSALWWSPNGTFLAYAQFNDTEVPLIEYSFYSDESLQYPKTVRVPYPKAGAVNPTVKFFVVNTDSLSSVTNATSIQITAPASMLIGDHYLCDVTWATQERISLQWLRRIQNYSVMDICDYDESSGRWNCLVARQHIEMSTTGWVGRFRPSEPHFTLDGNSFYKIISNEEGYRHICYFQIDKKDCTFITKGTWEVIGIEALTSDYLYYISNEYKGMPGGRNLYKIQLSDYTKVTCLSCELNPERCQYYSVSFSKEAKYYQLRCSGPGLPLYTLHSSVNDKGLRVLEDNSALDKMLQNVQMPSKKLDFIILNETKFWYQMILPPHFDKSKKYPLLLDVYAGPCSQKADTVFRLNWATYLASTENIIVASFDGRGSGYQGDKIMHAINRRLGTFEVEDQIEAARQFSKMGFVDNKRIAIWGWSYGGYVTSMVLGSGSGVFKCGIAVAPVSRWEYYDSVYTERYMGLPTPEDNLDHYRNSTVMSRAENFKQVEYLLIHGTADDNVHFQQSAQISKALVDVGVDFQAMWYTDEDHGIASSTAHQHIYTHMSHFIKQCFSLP

[4] = biological target: T4, recombinant human DPP9 (Homo sapiens, UniProt Q86TI2); experiment: DPP9 inhibition, fluorogenic substrate H-Gly-Pro-AMC; assay type: biochemical; conditions: recombinant human DPP9
T4 construct: purchased R&D Systems
T4 sequence (Q86TI2 whole entry): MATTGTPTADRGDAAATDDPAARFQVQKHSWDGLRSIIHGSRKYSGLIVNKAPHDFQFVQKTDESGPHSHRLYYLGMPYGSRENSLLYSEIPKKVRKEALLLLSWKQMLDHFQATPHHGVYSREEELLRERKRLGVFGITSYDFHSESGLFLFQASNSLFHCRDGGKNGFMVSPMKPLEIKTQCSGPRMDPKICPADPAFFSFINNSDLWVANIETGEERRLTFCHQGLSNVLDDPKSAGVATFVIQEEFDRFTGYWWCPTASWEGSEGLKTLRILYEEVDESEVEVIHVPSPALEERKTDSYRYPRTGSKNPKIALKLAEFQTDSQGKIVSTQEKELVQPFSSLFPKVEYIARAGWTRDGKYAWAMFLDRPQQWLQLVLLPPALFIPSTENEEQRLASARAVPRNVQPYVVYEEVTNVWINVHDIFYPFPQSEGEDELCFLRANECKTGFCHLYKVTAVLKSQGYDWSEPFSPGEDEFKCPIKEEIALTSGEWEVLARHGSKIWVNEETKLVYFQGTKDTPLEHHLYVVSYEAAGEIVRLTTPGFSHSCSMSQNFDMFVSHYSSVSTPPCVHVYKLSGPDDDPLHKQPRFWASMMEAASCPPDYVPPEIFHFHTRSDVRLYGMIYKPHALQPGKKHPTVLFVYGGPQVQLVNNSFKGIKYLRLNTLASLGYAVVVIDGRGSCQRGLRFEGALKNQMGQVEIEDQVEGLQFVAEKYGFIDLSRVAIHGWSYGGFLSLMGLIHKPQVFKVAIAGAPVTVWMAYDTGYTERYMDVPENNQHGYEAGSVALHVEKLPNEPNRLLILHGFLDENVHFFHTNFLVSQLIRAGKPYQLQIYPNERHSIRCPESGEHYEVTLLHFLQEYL
Summary of the method: as §1

[5] = biological target: T5, recombinant human DPP7 (Homo sapiens, UniProt Q9UHL4); experiment: DPP7 inhibition, fluorogenic substrate Lys-Pro-AMC; assay type: biochemical; conditions: recombinant human DPP7
T5 construct: purchased R&D Systems
Summary of the method: as §1

[6] = biological target: T6, recombinant human DPP8 (Homo sapiens, UniProt Q6V1X1); experiment: DPP8 inhibition, fluorogenic substrate Z-Ala-Pro-AMC; assay type: biochemical; conditions: recombinant human DPP8
T6 construct: purchased PBS Bioscience
T6 sequence (Q6V1X1 whole entry): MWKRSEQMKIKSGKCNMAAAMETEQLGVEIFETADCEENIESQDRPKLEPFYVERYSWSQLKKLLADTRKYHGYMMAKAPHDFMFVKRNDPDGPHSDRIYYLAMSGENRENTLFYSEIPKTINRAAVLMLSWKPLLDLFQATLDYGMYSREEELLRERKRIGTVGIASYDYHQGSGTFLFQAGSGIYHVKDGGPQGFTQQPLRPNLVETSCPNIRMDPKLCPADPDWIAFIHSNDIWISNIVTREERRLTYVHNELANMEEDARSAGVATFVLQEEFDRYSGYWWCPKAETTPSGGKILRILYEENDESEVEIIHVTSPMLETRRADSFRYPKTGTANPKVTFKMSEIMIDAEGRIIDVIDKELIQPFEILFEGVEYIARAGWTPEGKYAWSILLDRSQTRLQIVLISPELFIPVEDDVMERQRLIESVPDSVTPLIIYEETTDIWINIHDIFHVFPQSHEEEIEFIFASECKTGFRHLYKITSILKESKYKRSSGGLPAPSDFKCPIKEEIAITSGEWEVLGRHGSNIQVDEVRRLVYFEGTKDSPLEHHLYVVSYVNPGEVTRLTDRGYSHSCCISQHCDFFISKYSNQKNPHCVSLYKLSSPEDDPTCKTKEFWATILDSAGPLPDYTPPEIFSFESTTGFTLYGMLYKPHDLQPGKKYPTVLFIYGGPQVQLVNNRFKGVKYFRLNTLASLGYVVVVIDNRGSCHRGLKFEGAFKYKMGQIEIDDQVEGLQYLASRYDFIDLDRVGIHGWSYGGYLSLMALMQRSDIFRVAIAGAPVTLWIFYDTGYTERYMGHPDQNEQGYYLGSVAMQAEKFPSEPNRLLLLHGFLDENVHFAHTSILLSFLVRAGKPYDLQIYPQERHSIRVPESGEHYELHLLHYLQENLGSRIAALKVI
Summary of the method: as §1

[7] = biological target: T3, DPP4; conditions: cited from earlier work
Target sequence in this assay (P27487 whole entry, species assumed): as the sequence (P27487 whole entry) above

[8] = system: tumors; conditions: orally administered, mice; cited from earlier work

IC50 [1] [nM] | IC50 [2] [nM] | IC50 [3] [nM] | IC50 [4] [nM] | IC50 [5] [nM] | IC50 [6] [nM] | SMILES | DPP4 inhibitory activity [7] | anticancer activities [8]
78.3 | 1.8 | 4730 | 682 | 634 | 596 | N#C[C@@H]1C[C@H](F)CN1C(=O)CN1CCC(Nc2ccc(C(=O)Nc3ccccn3)c3ncccc23)CC1 [Example 404, 5-[[1-[2-oxo-2-[(2S,4S)-2-cyano-4-fluoro-pyrrolidin-1-yl]ethyl]-4-piperidyl]amino]-N-(2-pyridyl)quinoline-8-carboxamide] |  | 
597 | 1.9 | 2160 | 398 | 392 | 66.7 | N#C[C@@H]1C[C@H](F)CN1C(=O)CN1CCC(Nc2ccc(C(=O)Nc3cccnc3)c3ncccc23)CC1 [Example 405, 5-[[1-[2-oxo-2-[(2S,4S)-2-cyano-4-fluoro-pyrrolidin-1-yl]ethyl]-4-piperidyl]amino]-N-(3-pyridyl)quinoline-8-carboxamide] |  | 
535 | 4.2 | 2700 | 218 | 402 | 23.3 | N#C[C@@H]1C[C@H](F)CN1C(=O)CN1CCC(Nc2ccc(C(=O)Nc3ccncc3)c3ncccc23)CC1 [Example 406, 5-[[1-[2-oxo-2-[(2S,4S)-2-cyano-4-fluoro-pyrrolidin-1-yl]ethyl]-4-piperidyl]amino]-N-(4-pyridyl)quinoline-8-carboxamide] |  | 
< 30 | 3.4 | 1820 | 756 | 395 | 314 | N#C[C@@H]1C[C@H](F)CN1C(=O)CN1CCC(Nc2ccc(C(=O)Nc3ccon3)c3ncccc23)CC1 [Example 407, N-isoxazol-3-yl-5-[[1-[2-oxo-2-[(2S,4S)-2-cyano-4-fluoro-pyrrolidin-1-yl]ethyl]-4-piperidyl]amino]quinoline-8-carboxamide] |  | 
5010 | 5.6 | 37200 | ≥ 100000 | 15800 | 36600 | N#C[C@@H]1CCCN1C(=O)CN1CCC(Oc2ccnc3ccc(F)cc23)CC1 [Example 427, (2S)-1-[2-[4-[(6-fluoro-4-quinolyl)oxy]-1-piperidyl]acetyl]pyrrolidine-2-carbonitrile] |  | 
98 | 5.1 | 5680 | 3890 | 3070 | 3060 | N#C[C@@H]1C[C@H](F)CN1C(=O)CN1CCC(Oc2ccnc3cc(F)ccc23)CC1 [Example 433, (2S,4S)-4-fluoro-1-[2-[4-[(7-fluoro-4-quinolyl)oxy]-1-piperidyl]acetyl]pyrrolidine-2-carbonitrile] |  | 
395 | 3.6 | 2440 | 4510 | 4310 | 2740 | N#Cc1cccc2c(OC3CCN(CC(=O)N4C[C@@H](F)C[C@H]4C#N)CC3)ccnc12 [Example 434, 4-[[1-[2-oxo-2-[(2S,4S)-2-cyano-4-fluoro-pyrrolidin-1-yl]ethyl]-4-piperidyl]oxy]quinoline-8-carbonitrile] |  | 
555 | 11.1 | 9040 | 18200 | 8500 | 11700 | Cc1cc(OC2CCN(CC(=O)N3C[C@@H](F)C[C@H]3C#N)CC2)c2ccccc2n1 [Example 436, (2S,4S)-4-fluoro-1-[2-[4-[(2-methyl-4-quinolyl)oxy]-1-piperidyl]acetyl]pyrrolidine-2-carbonitrile] |  | 
454 | 1.8 | 4490 | 17400 | 6260 | 4150 | Cc1cc(OC2CCN(CC(=O)N3C[C@@H](F)C[C@H]3C#N)CC2)c2cc(F)ccc2n1 [Example 437, (2S,4S)-4-fluoro-1-[2-[4-[(6-fluoro-2-methyl-4-quinolyl)oxy]-1-piperidyl]acetyl]pyrrolidine-2-carbonitrile] |  | 
156 | 7.7 | 5670 | 5970 | 3580 | 3380 | COc1cccc2c(OC3CCN(CC(=O)N4C[C@@H](F)C[C@H]4C#N)CC3)ccnc12 [Example 438, (2S,4S)-4-fluoro-1-[2-[4-[(8-methoxy-4-quinolyl)oxy]-1-piperidyl]acetyl]pyrrolidine-2-carbonitrile] |  | 
75 | 3.7 | 6310 | 5460 | 3110 | 2700 | Cc1cccc2c(OC3CCN(CC(=O)N4C[C@@H](F)C[C@H]4C#N)CC3)ccnc12 [Example 439, (2S,4S)-4-fluoro-1-[2-[4-[(8-methyl-4-quinolyl)oxy]-1-piperidyl]acetyl]pyrrolidine-2-carbonitrile] |  | 
 |  |  |  |  |  | CC(C)[C@H](N)C(=O)N1CCC[C@H]1B(O)O [Val-boroPro, Talabostat] | inhibitory activity | 
 |  |  |  |  |  | CC(C)[C@H](N)C(=O)N1CCC[C@H]1B(O)O [ValboroPro, Val-boroPro] |  | exhibits anticancer activities in mice by delaying the proliferation of tumors and inducing the degeneration of tumors
